Data published in patent US8377913B2, “Vitamin D receptor activators and methods of making” (AbbVie Inc., priority 2007, dated 2013).
pEC50, pIC50: −log10 of the molar value.

How the values were obtained:
Type in all cases: cell-based
[1] = system: Human promyelocytic leukemia (HL60) cells; assay: HL-60 Differentiation; details: HL-60, 96 h, four days incubation, NBT, absorbance 570 nm
Method: Human promyelocytic leukemia (HL60) cells were obtained from the American Type Culture Collection (ATCC Cat. # CCL-240, Manassas, Va.). Cells were maintained in RPMI 1640 medium (commercially available from Invitrogen, Carlsbad, Calif.) containing 10% fetal bovine serum (commercially available from Invitrogen, Carlsbad, Calif.) at 37° C. with 5% CO2. Cells were passaged weekly and were not allowed to become >90% confluent. For the assay, cells were plated at 5×10^5 cells per well in 200 uL media. Test compounds were diluted in media in concentrations between 10^−6-10^−10 M and then added to the appropriate wells. Cells were then incubated for four days at 37° C. in 5% CO2 atmosphere. After incubation, media was aspirated from each well and 75 uL of NBT solution (nitroblue tetrazolinium: 200 ng/mL PMA (phorbol 12-myrystate 13-acetate) and 2 mg/ml NBT (nitroblue tetrazolium) in distilled H2O) was added to each well followed by further incubation for 2 hours at 37° C. Following incubation, 150 uL lysis buffer (225 mL dimethylformamide, 67.5 g SDS). PMA stock solution (2 mg/ml in ethanol) was added to each well and the plate was allowed to sit at room temperature for 4 hours. HL-60 cell differentiation was assayed, Effect of each compound on cell growth was examined as a function of time; absorbance in each well was measured at 570 nm.

[2] = system: VDR (VDRE-luciferase-reporter construct); assay: VDRE Reporter Gene Assay in HEK cells with stable expression of VDR; details: Homo sapiens, HEK293, 24 hours
Method: Compound activity was also assessed by looking at a Vitamin D Response Element (VDRE) reporter gene assay, Human Embryonic Kidney cells (HEK cells) with a stable expression of VDR were cultured in 96-well plates at ˜4×10^5 cells/mL (100 μL/well) in DMEM medium containing 10% fetal calf serum. Cells were transfected with 0.2 μg per well of a VDRE-luciferase-reporter construct (from Y. Li, University of Chicago) and then treated with test agents at indicated concentrations for 24 hours. The luciferase activity was then measured following the manufacturer's instructions (Promega, Madison, Wis.).

[3] = system: Renin mRNA in As4.1 cells; assay: Renin mRNA in As4.1 cells transfected with pcDNA-hVDR (real-time RT-PCR)
Method: As4.1 cells (ATCC, Manassas, Va.) were cultured in Dulbecco's Modified Eagle Medium DMEM (commercially available from Invitrogen, Carlsbad, Calif.) with 10% fetal bovine serum at 37° C. in a humidified 5% CO2-95% air atmosphere. C3;ells were transfected with the pcDNA-hVDR plasmid (provided by Yan Chun Li, University of Chicago) by LIPOFECTAMINE™ 2000 (Invitrogen, Carlsbad, Calif.). siRNA was transfected with the pcDNA-hVDR plasmid by LIPOFECTAMINE™ 2000 according to the manufacturer's protocol. Twenty-four hours after transfection, cells were treated with test agents.
Real-time reverse transcription-PCR was performed with a MyiQ Real-time PCR Detection System (commercially available from BioRad, Hercules, Calif.). […] TaqMan™ probes that were 5′ labeled with the reporter 6-carboxyfluorescein (FAM) and 3′ labeled with the quencher tetramethylrhodamine (TAMRA) were used and the primer and probe sets were obtained from Applied Biosystems (Foster City, Calif.). Temperature conditions consisted of a step of 5 minutes at 95° C., followed by 45 cycles of 60° C. for 1 minute and 95° C. for 15 seconds. Data was collected during each extension phase of the PCR reaction and analyzed with the accompanying software package (BioRad, Hercules, Calif.). Threshold cycles were determined for each gene.

[4] = system: Thrombospondin mRNA in human coronary artery smooth muscle cells (CASMC); assay: Thrombospondin mRNA in CASMC; details: for pIC50: Homo sapiens
Method: (§1) Primary culture of human coronary artery smooth muscle cells (CASMC) (commercially available from Cambrex, Walkersville, Md.) were grown in smooth muscle growth medium SmGM-2 (commercially available from Lonza Bioscience) containing 5.5 mM glucose, 5% FBS, 50 μg/ml gentamicin, 50 ng/ml amphotericin-B, 5 μg/ml insulin, 2 ng/ml human recombinant fibroblast growth factor (hFGF), and 0.5 ng/ml human recombinant epidermal growth factor (hEGF) at 37° C. in a humidified 5% CO2-95% air atmosphere. Cells were grown to >80% confluence and used within five passages.
(§2) Real-time reverse transcription-PCR was performed with a MyiQ Real-Time PCR Detection System (BioRad, Hercules, Calif.). Each sample has a final volume of 25 μl containing 100 ng of cDNA, […] each of the forward and reverse PCR primers and […] of the TaqMan™ probe for the gene of interest (Applied Biosystems, Foster City, Calif.). Temperature conditions consisted of a step of 5 minutes at 95° C., followed by 40 cycles of 60° C. for 1 minute and 95° C. for 15 seconds. Data was collected during each extension phase of the PCR reaction and analyzed with the software package (BioRad, Hercules, Calif.). Threshold cycles were determined for each gene. […]

[5] = system: PAI-1 mRNA in human coronary artery smooth muscle cells (CASMC); assay: PAI-1 mRNA in CASMC; details: for pIC50: Homo sapiens
Method: as §1, §2

[6] = system: Thrombomodulin mRNA in human coronary artery smooth muscle cells (CASMC); assay: Thrombomodulin mRNA in CASMC; details: for pEC50: Homo sapiens
Method: as §1, §2

C=C1[C@H](CO)C/C(=C\C=C2/CCC[C@]3(C)[C@@H]([C@H](C)OCCC(C)(C)O)CC[C@@H]23)C[C@H]1O [Example 17, (1R,3R,5E,7E,17β)-3-(hydroxymethyl)-17-[(1S)-1-(3-hydroxy-3-methylbutoxy)ethyl]-2-methylene-9,10-secoestra-5,7-dien-1-ol]
pEC50 [1]: 7.03
pEC50 [2]: 6.82
pIC50 [3]: 8.66

C=C1[C@H](O)C/C(=C/C=C2\CCC[C@]3(C)[C@@H]([C@H](C)CCCC(C)(C)O)CC[C@@H]23)C[C@@H]1F [Example 13, (1R,3S,5Z,7E,17β)-3-fluoro-17-[(1R)-5-hydroxy-1,5-dimethylhexyl]-2-methylene-9,10-secoestra-5,7-dien-1-ol]
pIC50 [4]: 10.52
pEC50 [1]: 7.28
pEC50 [2]: 6.56
pIC50 [5]: 11.00
pIC50 [3]: 9.05
pEC50 [6]: 7.10

C=C1[C@H](O)CC(=C/C=C2\CCC[C@]3(C)[C@@H]([C@H](C)OCCC(C)(C)O)CC[C@@H]23)C[C@H]1O [Example 8, (1R,3R,7E,17β)-17-[(1S)-1-(3-hydroxy-3-methylbutoxy)ethyl]-2-methylene-9,10-secoestra-5,7-diene-1,3-diol]
pIC50 [4]: 10.30
pEC50 [1]: 7.50
pEC50 [2]: > 11.00
pIC50 [5]: 10.70
pIC50 [3]: 9.52
pEC50 [6]: 7.41

C[C@H](CC[C@@H](C)C(C)(C)O)[C@H]1CC[C@H]2/C(=C/C=C3C[C@@H](O)C[C@H](O)C3)CCC[C@]12C [Example 15, (1R,3R,7E,17β)-17-[(1R,4R)-5-hydroxy-1,4,5-trimethylhexyl]-9,10-secoestra-5,7-diene-1,3-diol]
Thrombospondin mRNA in CASMC IC50 [4]: inactive
pEC50 [1]: 8.92
pEC50 [2]: 9.40
pIC50 [5]: 11.00
pIC50 [3]: 10.40
pEC50 [6]: 7.97

C=C1[C@H](O)CC(=C/C=C2\CCC[C@]3(C)[C@@H]([C@H](C)COC(=O)C(C)(C)OC(C)=O)CC[C@@H]23)C[C@H]1O [Example 6, (2S)-2-[(1R,3R,7E,17β)-1,3-dihydroxy-2-methylene-9,10-secoestra-5,7-dien-17-yl]propyl 2-(acetyloxy)-2-methyl propanoate]
pIC50 [4]: 8.89
pEC50 [1]: 7.92
pEC50 [2]: 8.89
PAI-1 mRNA in CASMC IC50 [5]: inactive
pIC50 [3]: 7.73
Thrombomodulin mRNA in CASMC EC50 [6]: inactive

CC(C)[C@@H](C)CC[C@@H](C)[C@H]1CC[C@H]2/C(=C/C=C3C[C@@H](O)C[C@H](O)C3)CCC[C@]12C [Example 9, (1R,3R,7E)-17-[(1R,4S)-1,4,5-trimethylhexyl]-9,10-secoestra-5,7-diene-1,3-diol]
pIC50 [4]: 9.52
pEC50 [1]: 6.36
pEC50 [2]: < 5.00
pIC50 [5]: 10.00
Renin mRNA in AS4.1 IC50 [3]: inactive
pEC50 [6]: 10.00

C=C1[C@H](O)C/C(=C\C=C2/CCC[C@]3(C)[C@@H]([C@H](C)CCCC(C)(C)O)CC[C@@H]23)C[C@@H]1F [Example 18, (1R,3S,5E,7E,17β)-3-fluoro-17-[(1R)-5-hydroxy-1,5-dimethylhexyl]-2-methylene-9,10-secoestra-5,7-dien-1-ol]
pEC50 [1]: 8.00
pEC50 [2]: 7.95
pIC50 [3]: 10.00

C=C1[C@H](CO)C/C(=C\C=C2/CCC[C@]3(C)[C@@H]([C@H](C)CCCC(C)(C)O)CC[C@@H]23)C[C@H]1O [Example 16, (1R,3R,5E,7E,17β)-17-[(1R)-5-hydroxy-1,5-dimethylhexyl]-3-(hydroxymethyl)-2-methylene-9,10-secoestra-5,7-dien-1-ol]
pEC50 [1]: 7.37
pEC50 [2]: 7.14
pIC50 [3]: 7.83

COC(C[C@@H](C)C(C)(C)OC)[C@@H](C)[C@H]1CC[C@H]2/C(=C/C=C3C[C@@H](O)C[C@H](O)C3)CCC[C@]12C (stereo partly drawn) [Example 11, (1R,3R,7E,17β)-17-[(1S,4R)-2,5-dimethoxy-1,4,5-trimethylhexyl]-9,10-secoestra-5,7-diene-1,3-diol]
pIC50 [4]: 11.00
pEC50 [1]: 6.51
pEC50 [2]: 6.74
pIC50 [5]: 11.00
pIC50 [3]: 11.70
pEC50 [6]: 7.55

C=C1[C@H](O)CC(=C/C=C2\CCC[C@]3(C)[C@@H]([C@H](C)COC(=O)C(C)(C)O)CC[C@@H]23)C[C@H]1O [Example 14, (2S)-2-[(1R,3R,7E,17β)-1,3-dihydroxy-2-methylene-9,10-secoestra-5,7-dien-17-yl]propyl 2-hydroxy-2-methylpropanoate]
pIC50 [4]: 10.70
pEC50 [1]: 8.05
pEC50 [2]: 9.22
pIC50 [5]: 10.40
pIC50 [3]: 10.52
pEC50 [6]: 8.29

C=C1/C(=C\C=C2/CCC[C@]3(C)[C@@H]([C@H](C)C(C[C@@H](C)C(C)(C)OC)OC)CC[C@@H]23)C[C@@H](O)C[C@@H]1O (stereo partly drawn) [Example 10, (1S,3R,5Z,7E,24R)-22,25-dimethoxy-9,1 0-secoergosta-5,7,10-triene-1,3-diol]
pIC50 [4]: 11.00
pEC50 [1]: 6.21
pEC50 [2]: 6.82
pIC50 [5]: 10.40
pIC50 [3]: 8.41
pEC50 [6]: 9.70

C=C1[C@H](O)CC(=C/C=C2\CCC[C@]3(C)[C@@H]([C@H](C)CC[C@H](C)C(C)C)CC[C@@H]23)C[C@H]1O [Example 7, (1R,3R,7E)-2-methylene-17-[(1R,4S)-1,4,5-trimethylhexyl]-9,10-secoestra-5,7-diene-1,3-diol]
pIC50 [4]: 10.00
pEC50 [1]: 7.90
pEC50 [2]: 7.91
pIC50 [5]: 10.00
pIC50 [3]: 10.00
pEC50 [6]: 9.22

C=C1[C@H](O)CC(=C/C=C2\CCC[C@]3(C)[C@@H]([C@H](C)COc4ccccc4)CC[C@@H]23)C[C@H]1O [Example 12, (1R,3R,7E,17β)-2-methylene-17-[(1S)-1-methyl-2-phenoxyethyl]-9,10-secoestra-5,7-diene-1,3-diol]
pIC50 [4]: 10.70
pEC50 [1]: 9.70
pEC50 [2]: 7.77
pIC50 [5]: 7.94
pIC50 [3]: 9.70
pEC50 [6]: 10.00
